From US9567345B2, “Pharmaceutically active pyrazolo-triazine derivatives” (LEAD DISCOVERY CENTER GMBH, priority 2012, dated 2017) come the findings set out here.

For one assay, the target named is CDK7/CycH/Mat1 (Homo sapiens, UniProt P50613). The assay is described as follows: CDK7 Enzymatic Activity Assay (Lance Kinase Activity Assay, FRET). It is filed as biochemical. On the procedure: (§1) This protocol describes how the Lance Kinase Activity Assay was performed to determine IC50 values of compounds of general formula (I) against CDK/Cyclin complexes. The principle behind this enzymatic assay is based upon the phosphorylation of the Ulight-Peptide Substrat. It is detected by using a specific EU-labeled anti-phospho peptide antibody.
Sequence of CDK7/CycH/Mat1 (P50613 whole entry): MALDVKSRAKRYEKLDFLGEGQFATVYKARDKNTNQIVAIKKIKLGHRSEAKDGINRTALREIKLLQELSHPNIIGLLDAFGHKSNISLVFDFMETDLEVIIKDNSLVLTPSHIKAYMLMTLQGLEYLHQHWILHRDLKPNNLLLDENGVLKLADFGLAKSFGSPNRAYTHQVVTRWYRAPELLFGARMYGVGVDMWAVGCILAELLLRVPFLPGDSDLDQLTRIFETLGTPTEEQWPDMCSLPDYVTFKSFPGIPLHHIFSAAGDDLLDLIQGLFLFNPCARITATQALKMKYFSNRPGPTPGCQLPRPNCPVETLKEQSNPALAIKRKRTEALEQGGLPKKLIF
(§2) Binding of an inhibitor to the kinase prevents phosphorylation of the Ulight-MBP Substrat, resulting in a loss of FRET.
CDK7 Enzymatic Activity Assay
(§3) The compounds of general formula (I) exemplary summarized in Table 1 were diluted from a 10 mM DMSO stock solution 1:10 in a total volume of 15 μl DMSO. This compound predilution was then serial diluted 1:3 over 8 steps in DMSO and briefly spun down. Each compound solution was now diluted 1:20 in Enzymatic Buffer (HEPES: 50 mM, pH: 7.5; MgCl2: 10 mM; EGTA: 1 mM; DTT: 2 mM; Tween-20: 0.01%), mixed thoroughly and spun down.
(§4) For positive controls, 2 μl of DMSO working solution were mixed with 6 μl CDK7/CycH/Mat1/substrate working solution and 2 μl ATP working solution. Positive and negative controls were calculated from at least 8 different wells. The 384 well plates were mixed in a Teleshaker plate mixer (Beckman Coulter, Brea, Calif., USA) at 2000 rpm for 40 sec, and incubated for 1 h at room temperature before addition of 10 μl LANCE Detection Buffer (1×; EDTA: […]; Eu-Anti-P-MBP: 4 nM) per well. Plates were mixed in a Teleshaker plate mixer (Beckman Coulter, Brea, Calif., USA) at 2000 rpm for 40 sec, followed by incubation with Detection Buffer for 1 h, and reading. […] IC50 values were determined from the sigmoidal dose response curves with the software Quattro Workflow (Quattro GmbH, Munich, Germany).

Another assay concerns the target CDK9/Cyclin T1 (Homo sapiens, UniProt P50750). As to the kind of experiment: CDK9 Enzymatic Activity Assay (Lance Kinase Activity Assay, FRET). It is filed as biochemical. The settings on record: for IC50: Table 5B, class symbols per IC50 [nM] ranges of b581, read-out: CDK9: Selectivity of CDK7 inhibition over CDK9 inhibition; for Selectivity CDK7 over CDK9: Table 6. On the procedure: as §1, §2
CDK9 Enzymatic Activity Assay
as §3
as §4, with “CDK9/cyclin T1/substrate” for “CDK7/CycH/Mat1/substrate”

Where [1] appears, read: CDK7/CycH/Mat1, 25 μM ATP final, class ranges, read-out: CDK7: IC50 [nM] for CDK7 inhibition.

Where two headings read alike, the source gives them in different places. Bounds are passed on as bounds.

Sequence of CDK9/Cyclin T1 (P50750 whole entry): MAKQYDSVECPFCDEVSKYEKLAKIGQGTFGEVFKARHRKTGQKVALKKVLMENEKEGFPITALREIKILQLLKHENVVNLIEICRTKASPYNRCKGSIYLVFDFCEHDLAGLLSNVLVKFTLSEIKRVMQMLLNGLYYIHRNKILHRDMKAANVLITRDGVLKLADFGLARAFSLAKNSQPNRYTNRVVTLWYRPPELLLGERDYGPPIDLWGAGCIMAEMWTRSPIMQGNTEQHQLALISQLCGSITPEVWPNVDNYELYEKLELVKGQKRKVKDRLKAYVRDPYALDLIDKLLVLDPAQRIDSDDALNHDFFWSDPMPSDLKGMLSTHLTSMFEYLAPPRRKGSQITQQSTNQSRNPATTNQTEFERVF
Sequence of CDK9/Cyclin T1 (O60563 whole entry partner): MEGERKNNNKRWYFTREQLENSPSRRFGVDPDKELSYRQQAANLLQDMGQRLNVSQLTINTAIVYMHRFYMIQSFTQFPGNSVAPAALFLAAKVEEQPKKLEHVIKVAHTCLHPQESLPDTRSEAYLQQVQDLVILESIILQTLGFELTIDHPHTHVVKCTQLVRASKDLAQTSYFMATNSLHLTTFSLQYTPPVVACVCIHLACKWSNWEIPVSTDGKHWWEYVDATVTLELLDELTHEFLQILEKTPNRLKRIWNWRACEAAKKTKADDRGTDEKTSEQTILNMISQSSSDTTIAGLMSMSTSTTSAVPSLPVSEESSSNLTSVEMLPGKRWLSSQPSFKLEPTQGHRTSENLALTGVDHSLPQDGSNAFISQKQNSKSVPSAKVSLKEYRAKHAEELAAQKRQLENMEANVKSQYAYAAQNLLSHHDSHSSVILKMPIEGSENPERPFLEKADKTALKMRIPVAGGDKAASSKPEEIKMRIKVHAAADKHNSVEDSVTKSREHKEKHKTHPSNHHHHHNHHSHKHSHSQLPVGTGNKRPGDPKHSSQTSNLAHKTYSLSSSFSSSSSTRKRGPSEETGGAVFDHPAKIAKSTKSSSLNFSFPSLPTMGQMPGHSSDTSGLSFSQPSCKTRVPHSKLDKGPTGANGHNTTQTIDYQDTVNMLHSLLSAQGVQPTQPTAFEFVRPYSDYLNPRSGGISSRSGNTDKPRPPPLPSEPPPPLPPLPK

In the case of `CC(C)c1cnn2c(N[C@@H](C)c3ccccc3Cl)nc(O[C@@H]3CCCNC3)nc12` [(VII-28), N-((S)-1-(2-chlorophenyl)ethyl)-8-isopropyl-2-((R)-piperidin-3-yloxy)pyrazolo[1,5-a][1,3,5]triazin-4-amine], the IC50 at CDK7/CycH/Mat1 (setting [1]) is below 5 nM; at CDK9/Cyclin T1, above 2500 nM.
The matching figures for `CC(C)c1cnn2c(NCc3c(F)cccc3F)nc(OC3CCN(C)CC3)nc12` [(VII-64), N-(2,6-difluorobenzyl)-8-isopropyl-2-((1-methylpiperidin-4-yl)oxy)pyrazolo[1,5-a][1,3,5]triazin-4-amine]: 5 to 10 nM and 50 to 500 nM.
Regarding `CC(C)c1cnn2c(N[C@@H](C)c3cccc4ccccc34)nc(OC3CCN(C)CC3)nc12` [(VII-69), (S)-8-isopropyl-2-((1-methylpiperidin-4-yl)oxy)-N-(1-(naphthalen-1-yl)ethyl)pyrazolo[1,5-a][1,3,5]triazin-4-amine], the IC50 at CDK7/CycH/Mat1 (setting [1]) is below 5 nM; on CDK9/Cyclin T1, above 2500 nM.
For `CC(C)Oc1ccccc1CNc1nc(OC2CCNCC2)nc2c(C(C)C)cnn12` [(VII-17), N-(2-isopropoxybenzyl)-8-isopropyl-2-(piperidin-4-yloxy)pyrazolo[1,5-a][1,3,5]triazin-4-amine] the same measures were below 5 nM and above 2500 nM.
For `CC(C)c1cnn2c(NCc3ccccc3-n3cccn3)nc(N3CCC4(CCN4)CC3)nc12` [(VIII-20), N-(2-(1H-pyrazol-1-yl)benzyl)-8-isopropyl-2-(1,7-diazaspiro[3.5]nonan-7-yl)pyrazolo[1,5-a][1,3,5]triazin-4-amine], the IC50 at CDK7/CycH/Mat1 (setting [1]) was below 5 nM; on CDK9/Cyclin T1, above 2500 nM.
`CC(C)c1cnn2c(NCc3ccccc3-n3cccn3)nc(OC3CNC3)nc12` [(VII-141), N-(2-(1H-pyrazol-1-yl)benzyl)-2-(azetidin-3-yloxy)-8-isopropylpyrazolo[1,5-a][1,3,5]triazin-4-amine]: the IC50 at CDK7/CycH/Mat1 (setting [1]) lay in the range of 10 to 25 nM.
Take `Cc1cccc(Cl)c1CNc1nc(OC2CCN(C)CC2)nc2c(C(C)C)cnn12` [(VII-62), N-(2-chloro-6-methylbenzyl)-8-isopropyl-2-((1-methylpiperidin-4-yl)oxy)pyrazolo[1,5-a][1,3,5]triazin-4-amine]: the figures for the IC50 at CDK7/CycH/Mat1 (setting [1]) and at CDK9/Cyclin T1 were 10 to 25 nM and above 2500 nM, respectively.
The matching figures for `CC(C)c1cnn2c(NCc3ccccc3-n3cccn3)nc(N3CCC4(CCNC4)CC3)nc12` [(VIII-09), N-(2-(1H-pyrazol-1-yl)benzyl)-8-isopropyl-2-(2,8-diazaspiro[4.5]decan-8-yl)pyrazolo[1,5-a][1,3,5]triazin-4-amine]: 5 to 10 nM and above 2500 nM.
For the compound `CC(C)c1cnn2c(NCc3ccccc3)nc(OC3CCN(C)CC3)nc12` [C-I, reference compound], at CDK7/CycH/Mat1 (Table 6, read-out: IC50 CDK7), the IC50 was below 5 nM.
Take `CC(C)c1cnn2c(NCc3ccccc3-n3cccn3)nc(N3CCC4(CC3)CNC4)nc12` [(VIII-16), N-(2-(1H-pyrazol-1-yl)benzyl)-8-isopropyl-2-(2,7-diazaspiro[3.5]nonan-7-yl)pyrazolo[1,5-a][1,3,5]triazin-4-amine]: the IC50 was below 5 nM at CDK7/CycH/Mat1 (setting [1]) and above 2500 nM on CDK9/Cyclin T1.
Turning to `CC(C)c1cnn2c(NCc3ccccc3)nc(O[C@@H]3CCCNC3)nc12` [C-II, reference compound], the IC50 at CDK7/CycH/Mat1 (Table 6, read-out: IC50 CDK7) is below 5 nM.
As for `CC(C)c1cnn2c(NCc3ccccc3-c3nnnn3C)nc(N3CCC4(CCCN4)CC3)nc12` [(VIII-18), 8-isopropyl-N-(2-(1-methyl-1H-tetrazol-5-yl)benzyl)-2-(1,8-diazaspiro[4.5]decan-8-yl)pyrazolo[1,5-a][1,3,5]triazin-4-amine], the figures for the IC50 at CDK7/CycH/Mat1 (setting [1]) and on CDK9/Cyclin T1 were below 5 nM and above 2500 nM, respectively.
For `CC(C)c1cnn2c(NCc3ccccc3-c3ccccc3)nc(OC3CCN(C)CC3)nc12` [(VII-57), N-([1,1′-biphenyl]-2-ylmethyl)-8-isopropyl-2-((1-methylpiperidin-4-yl)oxy)pyrazolo[1,5-a][1,3,5]triazin-4-amine], the IC50 at CDK7/CycH/Mat1 (setting [1]) is below 5 nM; at CDK7/CycH/Mat1 (Table 6, read-out: IC50 CDK7) it was below 5 nM; at CDK9/Cyclin T1, above 2500 nM. For the same compound, the “Selectivity CDK7 over CDK9” value at CDK9/Cyclin T1 came out at 909 fold.
Consider `CCOc1ccccc1CNc1nc(OC2CCN(C)CC2)nc2c(C(C)C)cnn12` [(VII-70), N-(2-ethoxybenzyl)-8-isopropyl-2-((1-methylpiperidin-4-yl)oxy)pyrazolo[1,5-a][1,3,5]triazin-4-amine], for which the IC50 is below 5 nM on CDK7/CycH/Mat1 (setting [1]); below 5 nM on CDK7/CycH/Mat1 (Table 6, read-out: IC50 CDK7); above 2500 nM at CDK9/Cyclin T1. Besides, on CDK9/Cyclin T1, the “Selectivity CDK7 over CDK9” value came out at 992 fold.
`CC(C)c1cnn2c(NCc3ccccc3-c3ccco3)nc(O[C@@H]3CCCNC3)nc12` [(VII-50), (R)-N-(2-(furan-2-yl)benzyl)-8-isopropyl-2-(piperidin-3-yloxy)pyrazolo[1,5-a][1,3,5]triazin-4-amine]: the IC50 at CDK7/CycH/Mat1 (setting [1]) is below 5 nM.
Still for that read-out and setting: in the case of `CC(C)c1cnn2c(NCc3ccccc3-c3ncco3)nc(O[C@@H]3CCCNC3)nc12` [(VII-49), (R)-8-isopropyl-N-(2-(oxazol-2-yl)benzyl)-2-(piperidin-3-yloxy)pyrazolo[1,5-a][1,3,5]triazin-4-amine] it was below 5 nM.
Regarding `CC(C)c1cnn2c(NCc3ccccc3-n3cccn3)nc(N3CC4(CCNCC4)C3)nc12` [(VIII-12), N-(2-(1H-pyrazol-1-yl)benzyl)-8-isopropyl-2-(2,7-diazaspiro[3.5]nonan-2-yl)pyrazolo[1,5-a][1,3,5]triazin-4-amine], the IC50 was below 5 nM on CDK7/CycH/Mat1 (setting [1]) and above 2500 nM on CDK9/Cyclin T1.
For `CC(C)c1cnn2c(NCc3ccccc3-n3cccn3)nc(N3CCC34CCCNC4)nc12` (centres unmarked) [(VIII-04), N-(2-(1H-pyrazol-1-yl)benzyl)-8-isopropyl-2-(1,6-diazaspiro[3.5]nonan-1-yl)pyrazolo[1,5-a][1,3,5]triazin-4-amine] the same measures were 10 to 25 nM and above 2500 nM.
The matching figures for `Cc1nccn1-c1ccccc1CNc1nc(O[C@@H]2CCNC2)nc2c(C(C)C)cnn12` [(VII-25), (R)-8-isopropyl-N-(2-(2-methyl-1H-imidazol-1-yl)benzyl)-2-(pyrrolidin-3-yloxy)pyrazolo[1,5-a][1,3,5]triazin-4-amine]: below 5 nM and above 2500 nM.
For `CC(=O)Nc1ccccc1CNc1nc(O[C@@H]2CCCNC2)nc2c(C(C)C)cnn12` [(VII-51), (R)-N-(2-(((8-isopropyl-2-(piperidin-3-yloxy)pyrazolo[1,5-a][1,3,5]triazin-4-yl)amino)methyl)phenyl)acetamide], the IC50 on CDK7/CycH/Mat1 (setting [1]) was below 5 nM; at CDK7/CycH/Mat1 (Table 7, read-out: IC50 CDK7) it was below 5 nM.
As for `CC(C)c1cnn2c(NCc3ccccc3Oc3ccccc3)nc(OC3CCN(C)CC3)nc12` [(VII-47), 8-isopropyl-2-((1-methylpiperidin-4-yl)oxy)-N-(2-phenoxybenzyl)pyrazolo[1,5-a][1,3,5]triazin-4-amine], the IC50 on CDK7/CycH/Mat1 (setting [1]) is below 5 nM.
As to `CC(C)c1cnn2c(NCc3ccccc3-n3cccn3)nc(OC3CC4(CNC4)C3)nc12` [(VII-04), N-(2-(1H-pyrazol-1-yl)benzyl)-2-(2-azaspiro[3.3]heptan-6-yloxy)-8-isopropylpyrazolo[1,5-a][1,3,5]triazin-4-amine], on CDK7/CycH/Mat1 (setting [1]), the IC50 is below 5 nM.
The same measure, in the same setting: in the case of `CC(C)c1cnn2c(NCc3ccccc3NC(=O)Nc3ccccc3)nc(O[C@@H]3CCCNC3)nc12` [(VII-111), (R)-1-(2-(((8-isopropyl-2-(piperidin-3-yloxy)pyrazolo[1,5-a][1,3,5]triazin-4-yl)amino)methyl)phenyl)-3-phenylurea] it was 10 to 25 nM; in that of `CC(C)c1cnn2c(NCc3ccccc3C(F)(F)F)nc(OC3CCN(C)CC3)nc12` [(VII-058), 8-isopropyl-2-((1-methylpiperidin-4-yl)oxy)-N-(2-(trifluoromethyl)benzyl)pyrazolo[1,5-a][1,3,5]triazin-4-amine], above 25 nM.
The same measure, in the same setting: next, `CC(C)c1cnn2c(NCc3ccccc3Oc3ccccc3)nc(O[C@@H]3CCCNC3)nc12` [(VII-48), (R)-8-isopropyl-N-(2-phenoxybenzyl)-2-(piperidin-3-yloxy)pyrazolo[1,5-a][1,3,5]triazin-4-amine]: below 5 nM.
